US9757408B2 (Hayashibara Co., Ltd., priority 2010, dated 2017)
Marks after values point to notes of the source that are not given here.

Tests used:
[1] = test system: VCAM-1 expression in HUVEC cells; assay: Expression of cell-adhesion factor VCAM-1 on HUVEC cells, fluorescent intensity (Experiment 6-3); assay type: cell-based, human; conditions: LPS 10 μg/mL, IL-1β, IFN-γ
Description: Thereafter, the supernatant in each well was removed by suction, and the cells were washed twice with PBS, followed by adding 4% paraformaldehyde to the cells and allowing them to stand at ambient temperature for one hour to fix them. After the fixation, the cells were washed thrice with PBS, followed by adding PBS containing 1% BSA and 0.05% NaN3 in an amount of 150 μL/well, and subjecting the cells to blocking at 4° C. overnight. […] Thereafter, the cells were washed four times with PBS, adding an HRPO-labeled streptavidin (“Streptavidin HRP Conjugate”, a product name of Invitrogen Corporation, CA, USA), which had been diluted with PBS containing 3% BSA by 1,000 times, in an amount of 100 μL/well and allowing the cells to stand at ambient temperature for one hour. Finally, the cells were washed four times with PBS, allowed to develop color for 10 min with “QuantaBlue™ Fluorogenic Peroxidase Substrate”, commercialized by Pierce Biotechnology, IL, USA, and determined the cells' fluorescent intensity at a wavelength of 325 to 420 nm. […] The results are in Table 6 in parallel.

[2] = test system: tissue factor expression in HUVEC cells; assay: Expression of tissue factor in HUVEC cells, ELISA of cell lysate (Experiment 6-2); assay type: cell-based, human; conditions: for concentration which significantly inhibited the expression of tissue factor: LPS; for concentration which significantly inhibited the expression of tissue factor / Amount of expressed tissue factor: IL-1β, IFN-γ; for Amount of expressed tissue factor: HUVEC, LPS 10 μg/mL
Description: Thereafter, a solution of LPS, IL-1β, and IFN-γ were respectively prepared to give respective concentrations of 10 μg/mL, 2 ng/mL, and 500 IU/mL, added to the cells in an amount of 50 μL/well, and incubated at 37° C. for 5.5 hours in a 5% v/v CO2 incubator. After the culture, the cells were washed twice with PBS, followed by adding PBS to the resulting cells in a volume of 50 μL/well. The multi-plates were subjected to a freezing at −80° C. and thawing process thrice, followed by adding 50 mM Tris buffer (pH 7.4) containing 100 mM NaCl and 0.2% Triton X-100 to the microplates in an amount of 50 μL/well, culturing the cells at 4° C. overnight to prepare a cell lysate. The content of tissue factor in the cell lysate was determined by “AssayMax Human Tissue Factor ELISA Kit”, a product name of ELISA commercialized by Assay Pro, USA.

[3] = test system: mice with concanavalin A (Con A) induced liver disorder; assay: Concanavalin A induced liver disorder mice: GPT, GOT, liver necrosis score (Experiment 12); assay type: in vivo, BALB/c mice; parameters: Liver function GPT / Liver function GOT: unit not given here; conditions: Con A 15 mg/kg i.v.; for Liver function GOT / Liver function GPT: serum 20 hours after Con A; for Conditions of liver tissue, Necrosis (average score): grades mild (1), moderate (2), severe (3)
Description: “TYPE IV”, a Con A specimen commercialized by Sigma-Aldrich Corporation, St. Louis, Mo. USA, was dissolved in physiological saline and intravenously administered to all the five mice in each six groups at a dose of 15 mg/0.2 mL. […] The five mice in the remaining one group as a control were intravenously administered with 0.2 mL/head of physiological saline, simultaneously with Con A (Experiment group 1).
For the mice in each group, they were collected blood at 20 hours after administering Con A, followed by assaying the activity of GPT and GOT in their sera with “TRANSAMINASE CII-TEST WAKO”, a commercialized assay kit produced by Wako Pure Chemical Industries Ltd., Tokyo, Japan, for use as an index for liver disorder due to hepatitis. […] The tissue specimens were stained with hematoxylin-eosin staining, followed by calculating an average of scores for judgement on the conditions of necrosis of liver tissues by microscopic observation, for use as an index for liver disorder. The results are in Table 12 in parallel. The conditions of necrosis of liver tissues were evaluated based on a microscopic observation standard of three grades of “mild (1)”, “moderate (2)”, and “severe (3)” and scored before determining the average for each group.

[4] = test system: TNF-α production of HUVEC cells; assay: TNF-α production of HUVEC cells, LPS/IL-1β/IFN-γ (Experiment 6-1); assay type: cell-based, human; conditions: for TNF-α Concentration: HUVEC, LPS 10 μg/mL, IL-1β, IFN-γ; for IC50: Homo sapiens, LPS in the coexistence of IL-1β and IFN-γ, read-out: IC50 against production inhibition of TNF-α
Text: The results are in Table 6 in parallel.

| SMILES | Amount of expressed VCAM-1 ([1]; test substance 1 μM) | Amount of expressed VCAM-1 ([1]; test substance 2 μM) | Amount of expressed VCAM-1 ([1]; test substance 5 μM) | Amount of expressed VCAM-1 ([1]; test substance 10 μM) | concentration which significantly inhibited the expression of tissue factor ([2]; HUVEC cells) | Amount of expressed tissue factor ([2]; test substance 1 μM) | Amount of expressed tissue factor ([2]; test substance 2 μM) | Amount of expressed tissue factor ([2]; test substance 5 μM) | Amount of expressed tissue factor ([2]; test substance 10 μM) | Liver function GOT ([3]; 127 mg/kg i.v. simultaneously) | Liver function GPT ([3]; 127 mg/kg i.v. simultaneously) | Conditions of liver tissue, Necrosis (average score) ([3]; 127 mg/kg i.v.) | TNF-α Concentration ([4]; test substance 1 μM) | TNF-α Concentration ([4]; test substance 2 μM) | TNF-α Concentration ([4]; test substance 5 μM) | IC50 ([4]; HUVEC cells) | also measured |
| --- | --- | --- | --- | --- | --- | --- | --- | --- | --- | --- | --- | --- | --- | --- | --- | --- | --- |
| Nc1ncnc2c1ncn2[C@@H]1O[C@H](CO)[C@@H](O)[C@H]1O [AN, adenosine] | 3,824 | 3,957 | 3,609** | 2,823** | at least 5 μM | 27.1 | 26.6 | 13.9** | 4.5** | 4130* | 1917 | 2.5 | 53 pg/mL | 49.2 pg/mL | 40.3 pg/mL | 15.2 µM | TNF-α Concentration ([4]; test substance 10 μM): 31.1** pg/mL |
| Nc1c2ncn([C@@H]3O[C@H](CO)[C@@H](O)[C@H]3O)c2nc[n+]1[O-] [ANO, adenosine N1-oxide] | 3,920 | 3,967 | 3,603* | 2,823** | at least 0.5 μM | 12.9** | 9.4** | 0** | 0** |  |  |  | 25.1** pg/mL | 12.3** pg/mL | 1.8** pg/mL | 0.97 µM | Amount of expressed VCAM-1 ([1]; test substance 0.2 μM): 4,123; Amount of expressed VCAM-1 ([1]; test substance 0.5 μM): 4,052; inhibitory strength on tissue factor expression, stronger than adenosine ([2]; HUVEC cells): at least 10 times; Amount of expressed tissue factor ([2]; test substance 0.2 μM): 27.6; Amount of expressed tissue factor ([2]; test substance 0.5 μM): 13.5**; Liver function GOT ([3]; 45 mg/kg i.v. simultaneously): 2941++; Liver function GPT ([3]; 45 mg/kg i.v. simultaneously): 1477*; Conditions of liver tissue, Necrosis (average score) ([3]; 45 mg/kg i.v.): 2.4; Liver function GOT ([3]; 75 mg/kg i.v. simultaneously): 2654**; Liver function GPT ([3]; 75 mg/kg i.v. simultaneously): 1229*; Liver function GOT ([3]; 135 mg/kg i.v. simultaneously): 1343**; Liver function GPT ([3]; 135 mg/kg i.v. simultaneously): 687**; Conditions of liver tissue, Necrosis (average score) ([3]; 135 mg/kg i.v.): 2.0; TNF-α production inhibitory action stronger than that of adenosine ([4]; HUVEC cells, comparison of IC50): about 16 times; TNF-α Concentration ([4]; test substance 0.2 μM): 51 pg/mL; TNF-α Concentration ([4]; test substance 0.5 μM): 41.1 pg/mL |
| OC[C@H]1O[C@@H](n2cnc3c(O)ncnc32)[C@H](O)[C@@H]1O [IN, inosine] |  |  |  |  |  |  |  |  |  | 5243 | 2061 | 2.6 |  |  |  |  |  |
